According to US8173668B1 (Alcon Research, Ltd., priority 2007, dated 2012):
Several values for one entry are separate records, joined by “and”; a condition that tells them apart may be missing. Identical values can stand only once.

Experiments:
[1] = molecular target: T1, BK B2-Receptor in h-CM cells (Homo sapiens, UniProt P30411); experiment: Antagonism of FR-190997-induced [Ca2+]i mobilization in h-CM cells; assay type: cell-based; settings: FR-190997 as the agonist, read-out: Antagonist Potency (Ki)
T1 construct: B2-receptor proteins in h-TM, h-CM and h-NPE cells; endogenous in cells; host or cells: human trabecular meshwork (h-TM), human ciliary muscle (h-CM) and human non-pigmented ciliary epithelial (h-NPE) cells
Method: On the day of the experiment, one vial of FLIPR Calcium Assay Kit dye is re-suspended in 50 mL of a FLIPR buffer consisting of Hank's Balanced Salt Solution (HBSS), 20 mM HEPES, and 2.5 mM probenecid, pH 7.4. Cells are loaded with the calcium-sensitive dye by addition of an equal volume (50 μL) to each well of the 96-well plate and incubated with dye for 1 h at 23° C. After this time, the test compound plate and cell plate are placed in the FLIPR instrument. At the beginning of an experimental run, a signal test is performed to check the basal fluorescence signal from the dye-loaded cells and the uniformity of the signal across the plate. The basal fluorescence is adjusted between 8000-12000 counts by modifying the exposure time, the camera F-stop, or the laser power. […]
Fluorescence data are collected in real-time at 1.0 sec intervals for the first 60 secs and at 6.0 sec intervals for an additional 120 secs. […] The data are then analyzed using an automated, iterative, sigmoidal curve-fitting computer program to obtain the potency and intrinsic activities of the test agents as previously described (Sharif et al. J. Pharmacol. Exp. Ther. 286: 1094-1102, 1998; Sharif et al. Invest. Ophthalmol. Vis. Sci. 39:2562-2571, 1998; Kelly et al. J. Pharmacol. Exp. Ther. 304: 238-245, 2003). […]

[2] = molecular target: T2, BK B2-Receptor in h-NPE cells (Homo sapiens, UniProt P30411); experiment: Antagonism of FR-190997-induced [Ca2+]i mobilization in h-NPE cells; assay type: cell-based; settings: FR-190997 as the agonist, read-out: Antagonist Potency (Ki)
T2 construct: B2-receptor proteins in h-TM, h-CM and h-NPE cells; endogenous in cells; host or cells: human trabecular meshwork (h-TM), human ciliary muscle (h-CM) and human non-pigmented ciliary epithelial (h-NPE) cells
T2 sequence (P30411 1-391): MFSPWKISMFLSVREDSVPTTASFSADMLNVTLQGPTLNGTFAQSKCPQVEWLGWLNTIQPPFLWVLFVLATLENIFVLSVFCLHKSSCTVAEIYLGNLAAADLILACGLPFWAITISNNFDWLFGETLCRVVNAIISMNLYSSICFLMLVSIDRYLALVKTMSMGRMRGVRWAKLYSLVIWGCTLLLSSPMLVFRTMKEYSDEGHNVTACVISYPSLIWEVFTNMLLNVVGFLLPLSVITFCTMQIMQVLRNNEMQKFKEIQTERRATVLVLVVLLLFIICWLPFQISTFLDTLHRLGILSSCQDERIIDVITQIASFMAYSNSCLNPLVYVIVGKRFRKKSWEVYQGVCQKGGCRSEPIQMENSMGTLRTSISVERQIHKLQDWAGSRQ
Method: (§1) On the day of the experiment, one vial of FLIPR Calcium Assay Kit dye is re-suspended in 50 mL of a FLIPR buffer consisting of Hank's Balanced Salt Solution (HBSS), 20 mM HEPES, and 2.5 mM probenecid, pH 7.4. Cells are loaded with the calcium-sensitive dye by addition of an equal volume (50 μL) to each well of the 96-well plate and incubated with dye for 1 h at 23° C. After this time, the test compound plate and cell plate are placed in the FLIPR instrument. At the beginning of an experimental run, a signal test is performed to check the basal fluorescence signal from the dye-loaded cells and the uniformity of the signal across the plate. The basal fluorescence is adjusted between 8000-12000 counts by modifying the exposure time, the camera F-stop, or the laser power. Instrument settings for a typical assay are the following: laser power 0.3-0.6 W, camera F-stop F/2, and exposure time 0.4 sec.
(§2) Fluorescence data are collected in real-time at 1.0 sec intervals for the first 60 secs and at 6.0 sec intervals for an additional 120 secs. […] The data are then analyzed using an automated, iterative, sigmoidal curve-fitting computer program to obtain the potency and intrinsic activities of the test agents as previously described (Sharif et al. J. Pharmacol. Exp. Ther. 286: 1094-1102, 1998; Sharif et al. Invest. Ophthalmol. Vis. Sci. 39:2562-2571, 1998; Kelly et al. J. Pharmacol. Exp. Ther. 304: 238-245, 2003). The sources of materials and reagents for such assays can be found in the references cited above.

[3] = molecular target: T3, B2-receptors in h-TM cells (Homo sapiens, UniProt P30411); experiment: [Ca2+]i mobilization (FLIPR) in h-TM cells, agonist mode; assay type: cell-based; settings: h-TM cells, mean ± SEM
T3 construct: B2-receptor proteins in h-TM, h-CM and h-NPE cells; endogenous in cells; host or cells: human trabecular meshwork (h-TM), human ciliary muscle (h-CM) and human non-pigmented ciliary epithelial (h-NPE) cells
T3 sequence (P30411 1-391): T2 sequence (P30411 1-391)
Method: as §1, §2

[4] = molecular target: T4, B2-receptors in h-CM cells (Homo sapiens, UniProt P30411); experiment: [Ca2+]i mobilization (FLIPR) in h-CM cells, agonist mode; assay type: cell-based; settings: h-CM cells, mean ± SEM
T4 construct: B2-receptor proteins in h-TM, h-CM and h-NPE cells; endogenous in cells; host or cells: human trabecular meshwork (h-TM), human ciliary muscle (h-CM) and human non-pigmented ciliary epithelial (h-NPE) cells
T4 sequence (P30411 1-391): T2 sequence (P30411 1-391)
Method: as §1, §2

[5] = molecular target: T5, B2-receptors in h-NPE cells (Homo sapiens, UniProt P30411); experiment: [Ca2+]i mobilization (FLIPR) in h-NPE cells, agonist mode; assay type: cell-based; settings: h-NPE cells, mean ± SEM
T5 construct: B2-receptor proteins in h-TM, h-CM and h-NPE cells; endogenous in cells; host or cells: human trabecular meshwork (h-TM), human ciliary muscle (h-CM) and human non-pigmented ciliary epithelial (h-NPE) cells
T5 sequence (P30411 1-391): T2 sequence (P30411 1-391)
Method: as §1, §2

[6] = molecular target: human cloned B2-receptors (Homo sapiens, UniProt P30411); experiment: HTRF-based assay of endogenous IP1 production in CHO cells; assay type: cell-based; settings: CHO cells expressing human cloned B2-receptors, read-out: EC50, production of endogenous IP1 from PI turnover
Method: The cells are suspended in IP1 stimulation buffer containing Hepes 10 mM, CaCl2 1 mM, MgCl2 0.5 mM, KCl 4.2 mM, NaCl 146 mM, Glucose 5.5 mM, LiCl 50 mM pH 7.4, then distributed in microplates at a density of 40,000 cells/well (B2 receptor assays) or 30,000 cells/well (B1 receptor assays). Test compounds are added to the cells at various concentrations and incubated for 20 min at 37° C. […] Following the 20 min incubation at 37° C., the cells are lysed and the fluorescence acceptor (D2-labeled IP1) and fluorescence donor (anti-IP1 antibody labeled with europium cryptate) are added. After 60 min at room temperature, the fluorescence transfer is measured at λex=337 nm and λem=620 and 665 nm using a microplate reader.

[7] = test system: conscious ocular hypertensive cynomolgus monkey eyes; experiment: IOP response in lasered (hypertensive) eyes of conscious cynomolgus monkeys, topical ocular; assay type: in vivo; settings: for % Change in IOP: Table 7, dose = 30 μg
Method: Intraocular pressure (IOP) is determined with an Alcon Pneumatonometer (Alcon Laboratories, Inc., Fort Worth, Tex.) after light corneal anesthesia with 0.1% proparacaine. Right eyes are hypertensive as a result of laser trabeculoplasty. After a baseline IOP measurement, test compound is instilled in the right eyes only of 8-10 cynomolgus monkeys. Vehicle is instilled in the right eyes of 5-6 additional animals. Subsequent IOP measurements are taken at 1, 3, and 6 hours. IOP measurements are also taken on left eyes (normotensive and untreated) at each of these time points. The percent change in IOP from baseline is determined for each animal for every IOP measurement (Sharif et al. J. Ocular Pharmacol. Ther. 17: 305-317, 2001; May et al., J Pharmacol Exp Ther. 306: 301-309, 2003; Sharif et al. Invest. Ophthalmol. Vis. Res. 47: 4001-4010, 2006). Group mean and standard error of the mean (SEM) are calculated for each time point. […] In cases where the compound of invention has poor ocular bioavailability, the compound may need to be administered intracamerally or intravitreally in order to observe the IOP-lowering efficacy.
The IOP-lowering effect was slow to develop but significant IOP reduction was observed even 3 hours post-dosing with maximum ocular hypotension observed 16-48 hours post-dosing (Tables 6-8; FIGS. 3b-5).

[8] = read-out: Potency (EC50), [Ca2+]i mobilization
[9] = read-out: Intrinsic Activity (Emax, % max relative to BK)

Cc1nc2c(OCc3c(Cl)ccc(N(C)C(=O)CNC(=O)/C=C/c4ccc(C(=O)N(C)C)cc4)c3Cl)cccn2c1Br [FR-167344] was tested, and the Ki [1] was 45 nM and 71 nM and the Ki [2] was 124 nM.
Compound Cc1cc(OCc2ccccn2)c2cccc(OCc3c(Cl)ccc(N(C)C(=O)CNC(=O)/C=C/c4ccc(/C=C/c5ccncc5)nc4)c3Cl)c2n1 [Compound 1] has an Emax ([3]; HTM, read-out: Intrinsic Activity (Emax, % max relative to BK)) of 93%, an EC50 [3, 8] of 290 ± 75 nM and an Emax [4, 9] of 96%. It also gave an EC50 [4, 8] of 237 ± 29 nM, an Emax [5, 9] of 86% and an EC50 [5, 8] of 709 ± 54 nM. The EC50 [6] was 38 nM, the “% Change in IOP” value ([7]; Dose 1/3 hr) was −12.5 ± 3.4% and the “% Change in IOP” value ([7]; Dose 1/6 hr) was −18.9 ± 6.6%. For the same compound, the “% Change in IOP” value ([7]; Dose 2/24 hr) was −26.6 ± 5.4%, the “% Change in IOP” value ([7]; Dose 2/48 hr) was −15.1 ± 3.9% and the “lowering of IOP” value ([7]; topical ocular, 0.03-600 μg/eye) was “significant dose-dependent lowering of IOP”.
In the case of CC(=O)Nc1ccc(/C=C/C(=O)NCC(=O)N(C)c2ccc(Cl)c(COc3cccc4ccc(C)nc34)c2Cl)cn1 [FR-173657], the Ki [1] is reported as 68 nM and 114 nM and the Ki [2] is reported as 439 nM.
